Data from patent publication US20110287936A1, “GENE SWITCH COMPOSITIONS AND METHODS OF USE” (priority 2010, published 2011).

Experiments:
[1] = test system: tetA promoter (PtetA)-lacZ reporter in E. coli strain KM3; assay type: cell-based; settings: L1 hits, 20 μg/ml
[2] = test system: BSV:tetOp or 35S:tetOp::dsRed with Ubi:ESR(3E3); assay: Maize callus RFP de-repression on chlorsulfuron selection; assay type: in vivo
Excerpt: (§1) The BSV::tetOp promoter and the MP1::tetOp promoter were synthesized and cloned into expression cassettes driving expression of the DsRED (RFP) gene for testing. For all comparisons of RFP expression, side-by-side comparisons were made within experiment by taking micrographs of the tissue at the same exposure and qualitatively ranking fluorescence intensity, assigning the scores in the table below. The DsRED protein is very stable (has a relatively long half-life), and even with low expression levels in the cell can accumulate over time.
Maize immature embryos were transformed with Agrobacterium as generally described in Example 5D. Transformants were generated that contained one of the two T-DNAs shown below: • RB-BSV:tetOp::Adh Intron::dsRed+ALS:HRA+Ubi:ESR(3E3)-LB • RB-35S:tetOp::Adh intron::dsRed+ALS:HRA+Ubi::ESR(3E3)-LB
Selection of transgenic events was performed using 30, 100, or 500 μg/L chlorsulfuron.

[3] = test system: BSV(AY) PRO::tetOp::ODP2 with ESR(3E3); assay: Inducible callus initiation from maize leaf pieces; assay type: in vivo; settings: 100 mg/L chlorsulfuron, two weeks
Procedure: Immature maize embryos from maize inbred PHN46 were transformed as describe in Example 5D using Agrobacterium comprising the following: • RB-BSV(AY) PRO::tetOp::Adh1 Intron::ODP2::pinII+35S ENH::ALS PRO::HRA::pinII+Ubi Pro::ESR(3E3)::pinII-LB.
Events were selected on 100 μg/l chlorsulfuron, and plantlets were regenerated in the absence of the SU compound. When the plantlets were approximately 20 cm tall, the leaves were cut into approximately 2-4 mm cross-sections and placed on embryogenic culture medium+/−100 mg/L chlorsulfuron.

[4] = test system: 35S PRO:3xTetOp:dsRED reporter with ESR(L13-2-23); assay: Rice callus RFP induction by sulfonylureas; assay type: in vivo; settings: for RFP Score: 20 hours, rice callus
Procedure: Mature seed of rice were surface sterilized and placed on callus induction medium (Chu (N6) salts, Eriksson's vitamins, 0.5 mg/L thiamine, 2 mg/L 2,4-D, 2.1 g/L proline, 30 g/L sucrose, 300 mg/L casein hydrolysate, and 100 mg/L myo-inositol, adjusted to pH 5.8). After one week, callus was transformed using Agrobacterium LBA4404, delivering the following T-DNA: • RB-35S PRO:3xTetOp:dsRED::pinII+35S PRO::Adh intron::ESR(L13-2-23)::UBI TERM+Sb-ALS PRO::HRA::pinII-LB
Transgenic events were visually selected as […] calli growing on 100 PPB ethametsulfuron. […] Non-fluorescing events were then transferred to plates of medium containing varying amounts of sulfonylureas (SU). For the control, there was no SU, with additional treatments containing 100 or 500 ppb chlorsulfuron, and 100 or 500 ppb ethametsulfuron, After 20 hours of the induction treatment, micrographs were taken at the same exposure and scored (see Example 7 for scoring criteria) as shown in the table below
as §1

[5] = test system: 35S/TripleOp/Pro::RFP reporter; assay: Maize callus and seedling RFP de-repression; assay type: in vivo; settings: 1 mg/l doxycycline; callus and plants with UBI::TetR expression cassette
[6] = test system: 35S PRO:tetOp::moCRE with ESR(L13-2-23), loxP AmCYAN/ZsYELLOW reporter; assay: Ethametsulfuron-induced Cre excision in maize callus; settings: maize calli, 250 μg/L ethametsulfuron, one week
Procedure: (§2) Herbicide-resistant, blue fluorescent co-transformed calli were recovered and tested for SU-inducible excision. Calli were split onto media+/−250 μg/L ethametsulfuron.

[7] = test system: 35S PRO:tetOp::moCRE with ESR(L13-2-23), lox66/lox71 AmCYAN/ZsYELLOW reporter; assay: Ethametsulfuron-induced Cre inversion in maize callus; settings: 250 μg/L ethametsulfuron, one week
[8] = test system: 35S PRO:tetOp::moCRE with ESR(L13-2-23), loxP AmCYAN/ZsYELLOW reporter; assay: Ethametsulfuron-induced Cre excision in rice callus; settings: rice calli, 250 μg/L ethametsulfuron, one week
Procedure: as §2

`CCOC(=O)c1ccccc1S(=O)(=O)NC(=O)Nc1nc(Cl)cc(OC)n1` [chlorimuron, Chlorimuron-ethyl] was tested, and the “potency as activator compared with Harmony®” value [1] was “more potent activators than the starting ligand Harmony®”.

For `COc1nc(C)nc(NC(=O)NS(=O)(=O)c2ccccc2Cl)n1` [chlorsulfuron, 2 chloro N((4 methoxy 6 methy 1,3,5 triazine 2 yl)aminocarbonyl)benzenesulfonamide], the “RFP Score” value ([2]; 30 μg/l, six weeks) was 0, the RFP fluorescence ([2]; 100 μg/l, six weeks) was “small sectors of RFP fluorescence were observed” and the RFP fluorescence ([2]; 500 μg/l, six weeks) was “large segments of the calli were brightly fluorescing”. The “activity as inducer of the ethametsulfuron repressor, fold less” value ([2]; in vivo) was “approximately 10 fold”, the “callus initiation from leaf pieces” value [3] was “producing callus from the leaf segments” and the “RFP Score” value ([4]; 100 ppb) was 0-1. The “RFP Score” value ([4]; 500 ppb) was 2-3 and the “potency as activator compared with Harmony®” value [1] was “more potent activators than the starting ligand Harmony®”.

For `C[C@H]1c2cccc(O)c2C(=O)C2=C(O)[C@]3(O)C(=O)C(C(N)=O)=C(O)[C@@H](N(C)C)[C@@H]3[C@@H](O)[C@@H]21` [doxycycline], the induction period [5] was 5 to 6 days.

For `CCOc1nc(NC)nc(NC(=O)NS(=O)(=O)c2ccccc2C(=O)OC)n1` [ethametsulfuron, Ethametsulfuron-methyl], the SU-inducible excision [6] was “yellow fluorescent sectors were observed”, the SU-inducible inversion [7] was “sectors exhibiting only yellow fluorescent” and the “level of RFP induction, comparison of ligands” value ([4]; 100 and 500 ppb) was “induced to a greater level than chlorsulfuron”. The “RFP Score” value ([4]; 100 ppb) was 1-2, the “RFP Score” value ([4]; 500 ppb) was 4 and the SU-inducible excision [8] was “yellow fluorescent sectors were observed”. The “potency as activator compared with Harmony®” value [1] was “more potent activators than the starting ligand Harmony®”.
